Assay results published in patent US20070020716A1, “Coronary Endothelial Dysfunction” (priority 2005, published 2007).

What was measured:
[1] = test system: coronary blood flow (left anterior descending coronary artery); assay: Microvascular endothelial function: change in coronary blood flow after intracoronary acetylcholine; type: in vivo, human; conditions: maximal dose of intracoronary acetylcholine, unadjusted
Method: (§1) After diagnostic angiography and exclusion of significant obstructive coronary artery disease, endothelium-dependent coronary vasoactivity was assessed as described elsewhere (Suwaidi et al., Circulation, 101:948-954 (2000) and Hasdai et al., Circulation, 96:3390-3395 (1997)). In brief, a Doppler guidewire (Flowire, Volcano Inc.) within a coronary-infusion catheter (Ultrafuse, SciMed Life System) was positioned into the midportion of the left anterior descending coronary artery. Intra-coronary acetylcholine at increasing concentrations of 10^−6, 10^−5, and 10^−4 M was infused to obtain effective coronary concentrations of 10^−8, 10^−7, and 10^−6 M, respectively. Each dose of acetylcholine was infused for three minutes through the infusion catheter into the left anterior descending coronary artery to assess endothelium dependent vasoreactivity. Hemodynamic data, Doppler measurements, and a coronary angiogram were obtained after each infusion. Coronary artery diameter was measured by an independent investigator in the segment 5 mm distal to the tip of the Doppler wire using a computer-based image analysis system. Average peak velocity (APV) was derived from the Doppler flow velocity spectra, and coronary blood flow (CBF) was determined as π(coronary artery diameter/2)^2×(APV/2). […] Endothelium-independent microvascular function was determined by the coronary flow reserve (CFR), which is the ratio of the APV at maximal hyperemia to the APV at baseline. […] Lp-PLA2 levels were measured in plasma aliquots, which were obtained at the time of coronary angiography and stored at −70° C., using an enzyme-linked immunoassay (PLAC™ test, diaDexus, Inc; Caslake et al., Atherosclerosis, 150:413-419 (2000)). […]
Microvascular endothelial function as determined by percentage change in coronary blood flow in response to the maximal dose of intracoronary acetylcholine was measured (FIG. 1). […]

[2] = test system: coronary artery diameter (left anterior descending coronary artery); assay: Epicardial endothelial function: change in coronary artery diameter after intracoronary acetylcholine; type: in vivo, human; conditions: maximal dose of acetylcholine, unadjusted
Method: as §1
Epicardial endothelial function as determined by percentage change in coronary artery diameter in response to the maximal dose of acetylcholine was measured (FIG. 2). […]

[3] = patients in Lp-PLA2 Tertile 1 (110-181.4 ng/mL, N=57)
[4] = patients in Lp-PLA2 Tertile 2 (181.48-239.6 ng/mL, N=58)
[5] = patients in Lp-PLA2 Tertile 3 (240-443 ng/mL, N=57)

With CC(=O)OCC[N+](C)(C)C [acetylcholine] the “percentage change in coronary blood flow” value [1, 3] was 78.4±15.2%, the “percentage change in coronary blood flow” value [1, 4] was 63.8±73.2% and the “percentage change in coronary blood flow” value [1, 5] was 32.0±71.7%. For the same molecule, the “percentage change in coronary artery diameter” value [2, 3] was −9.5±15.2%, the “percentage change in coronary artery diameter” value [2, 4] was −14.1±14.7% and the “percentage change in coronary artery diameter” value [2, 5] was −23.3±25.1%.
